In publication PMC9239272 (mBio, 2022):

Key:
SARS2 M^pro [1] = assay type: cell-based, SARS-CoV-2
229E M^pro = assay type: cell-based, HCoV-229E
NL63 M^pro [2] = assay type: cell-based, HCoV-NL63; details: 2-fold dilution series beginning at 100 μM
SARS2 M^pro [3] = assay type: cell-based, SARS-CoV-2; remark: listed apart in the source
NL63 M^pro [4] = details: in vitro studies; cited from earlier work

Compound: CCCCCCNC(=O)n1cc(F)c(=O)[nH]c1=O [Carmofur]
- dose responsiveness of WT Luc reporter (SARS2 M^pro [1]): tested negative at all concentrations

Compound: CCOc1ccc2nc3cc(N)ccc3c(N)c2c1 [Ethacridine]
- dose responsiveness of WT Luc reporter (SARS2 M^pro [1]): tested negative at all concentrations

Compound: CC(C)(C)NC(=O)N[C@H](C(=O)N1C[C@H]2[C@@H]([C@H]1C(=O)NC(CC1CCC1)C(=O)C(N)=O)C2(C)C)C(C)(C)C (some centres unmarked) [boceprevir]
- increase in signal of luciferase construct compared with eGFP construct (SARS2 M^pro [1]): ~ 3 fold
- maximal signal increase over background (SARS2 M^pro [1]): 16 fold
- maximal signal increase over background (229E M^pro): 4.3 fold
- maximal signal increase over background (NL63 M^pro [2]): 1.9 fold
- restoration of eGFP fluorescence of WT reporter (SARS2 M^pro [3]): comparatively modest increase in signal
- IC50 (NL63 M^pro [4]): ~100 µM

Compound: O=c1c2ccccc2[se]n1-c1ccccc1 [ebselen]
- dose responsiveness of WT Luc reporter (SARS2 M^pro [1]): tested negative at all concentrations

Compound: Cc1ccc(NC(=O)c2ccc(CN3CCN(C)CC3)cc2)cc1Nc1nc(-c2cccnc2)cs1 [masitinib]
- dose responsiveness of WT Luc reporter (SARS2 M^pro [1]): tested negative at all concentrations

Compound: CC(C)(C)[C@H](NC(=O)C(F)(F)F)C(=O)N1C[C@H]2[C@@H]([C@H]1C(=O)N[C@H](C#N)C[C@@H]1CCNC1=O)C2(C)C [nirmatrelvir]
- dose responsiveness of WT Luc reporter (SARS2 M^pro [1]): highest reporter signals at all tested concentrations

Compound: GC376
- dose responsiveness of WT Luc reporter (SARS2 M^pro [1]): causes increased reporter expression
- increase in signal of luciferase construct compared with eGFP construct (SARS2 M^pro [1]): ~ 3 fold
- maximal signal increase over background (SARS2 M^pro [1]): 100 fold
- maximal signal increase over background (229E M^pro): 72 fold
- maximal signal increase over background (NL63 M^pro [2]): 24 fold
- restoration of eGFP fluorescence of WT reporter (SARS2 M^pro [3]): strong restoration of expression and eGFP fluorescence
- cell viability (293T cells; 48 h incubation, wide range of concentrations): cell viabilities remain consistent

Compound: GRL-0496
- dose responsiveness of WT Luc reporter (SARS2 M^pro [1]): clear positive dose response
- cytotoxicity (293T cells): no cytotoxicity
